Read-outs that look alike come from different tables or passages of the source.
Assays:
[1] = test system: patients with major depressive disorders; settings: cited from earlier work
[2] = test system: adult subjects with treatment resistant depression; assay type: in vivo, human; settings: for Non-remitters % / Non-remitters No. / Remitters No. (MADRS total score 10) / Remitters % (MADRS total score 10): ketamine pooled 2x/week and 3x/week; for Duration of response, survival function estimate: Failure / Duration of response, survival function estimate: Survival: ketamine responders (Day 29), follow-up phase; for Response rates, Val/Val vs Met carriers: ketamine subjects
Description: This was a double-blind, randomized, placebo-controlled, parallel arm study to assess the safety and efficacy of ketamine dosed 2 or 3 times weekly in adult subjects with treatment resistant depression. The study consisted of up to 4 phases: a screening phase of up to 4 weeks, a 4-week double-blind treatment phase (Day 1 to Day 29), an optional 2-week open label treatment phase, and a post treatment (follow up) phase of up to 3 weeks.
On Day 1 of the double-blind treatment phase, subjects were randomized to receive either i.v. infusions of placebo 2 times weekly or i.v. infusions of placebo 3 times weekly or i.v. infusions of ketamine 0.50 mg/kg, 2 times weekly or i.v. infusions of ketamine 0.50 mg/kg, 3 times weekly over 4 weeks.
Subjects who discontinued the double-blind treatment phase of the study due to lack of efficacy (based upon the clinical judgment of the investigator) after completion of the Day 15 visit, but prior to the Day 29 visit, may have received open-label ketamine treatment with the same dose frequency for an additional 2 weeks. After completing the Early Termination visit, the subject had study assessments as per the Time and Events Schedule for the optional open-label treatment phase followed by one follow up visit performed 1 week after the last dose of study medication.

[3] = test system: Met/Met knocked in mice; settings: LIU, Biol. Psychiatry 2012; cited from earlier work
[4] = test system: NMDA receptor; settings: S-enantiomer compared with ketamine; cited from earlier work
[5] = Met carriers, DAY 03 or DAY 04, ketamine pooled 2x/wk and 3x/wk
[6] = Met carriers, DAY 08(DB), ketamine pooled 2x/wk and 3x/wk
[7] = Met carriers, DAY 15(DB), ketamine pooled 2x/wk and 3x/wk
[8] = Met carriers, DAY 29(DB), ketamine pooled 2x/wk and 3x/wk
[9] = Met carriers, Day 0 after Day 29
[10] = Met carriers, Day 10 after Day 29
[11] = Met carriers, Day 11 after Day 29
[12] = Val/Val, DAY 03 or DAY 04, ketamine pooled 2x/wk and 3x/wk
[13] = Val/Val, DAY 08(DB), ketamine pooled 2x/wk and 3x/wk
[14] = Val/Val, DAY 15(DB), ketamine pooled 2x/wk and 3x/wk
[15] = Val/Val, DAY 29(DB), ketamine pooled 2x/wk and 3x/wk

## CNC1(c2ccccc2Cl)CCCCC1=O (racemic) [Ketamine, ketamine]
[1]; MDD patients, LAJE, Biol. Psychiatry 2012
  Likelihood of antidepressant response, Val/Val BDNF allele at rs6265 vs Met carriers: more likely to exhibit antidepressant response to ketamine than Met carriers
[1]; patients with major depressive disorders
  Onset of rapid antidepressant effect: within two hours
[2]; Met carrier group, at Day 39, from 7
  Subjects who remain well, number: 4
[2]; Met carriers (of 8)
  Day 29 responders who maintain response status during the follow-up phase, %: 62.5%
  Day 29 responders who maintain response status during the follow-up phase, number: 5
[2]; Met carriers, DAY 03 or DAY 04
  Non-remitters %: 100.0%
  Non-remitters No.: 13
  Remitters No. (MADRS total score 10): 0
[2]; [5]
  MADRS total score change from baseline, Mean: −6.85
  MADRS total score, Mean: 25.92
  Non-responders %: 92.3%
  Non-responders N: 12
  Responders % (MADRS total score reduction ≥50%): 7.7%
  Responders N (MADRS total score reduction ≥50%): 1
[2]; Met carriers, DAY 08(DB)
  Non-remitters %: 72.7%
  Non-remitters No.: 8
  Remitters % (MADRS total score 10): 27.3%
  Remitters No. (MADRS total score 10): 3
[2]; [6]
  MADRS total score change from baseline, Mean: −15.64
  MADRS total score, Mean: 17.00
  Non-responders %: 54.5%
  Non-responders N: 6
  Responders % (MADRS total score reduction ≥50%): 45.5%
  Responders N (MADRS total score reduction ≥50%): 5
[2]; Met carriers, DAY 15(DB)
  Non-remitters %: 54.5%
  Non-remitters No.: 6
  Remitters % (MADRS total score 10): 45.5%
  Remitters No. (MADRS total score 10): 5
[2]; [7]
  MADRS total score change from baseline, Mean: −17.45
  MADRS total score, Mean: 15.18
  Non-responders %: 45.5%
  Non-responders N: 5
  Responders % (MADRS total score reduction ≥50%): 54.5%
  Responders N (MADRS total score reduction ≥50%): 6
[2]; Met carriers, DAY 29(DB)
  Non-remitters %: 33.3%
  Non-remitters No.: 3
  Remitters % (MADRS total score 10): 66.7%
  Remitters No. (MADRS total score 10): 6
[2]; [8]
  MADRS total score change from baseline, Mean: −22.00
  MADRS total score, Mean: 10.78
  Non-responders %: 11.1%
  Non-responders N: 1
  Responders % (MADRS total score reduction ≥50%): 88.9%
  Responders N (MADRS total score reduction ≥50%): 8
[2]; [9]
  Duration of response, survival function estimate: Failure: 0
  Duration of response, survival function estimate: Survival: 1.0000
[2]; [10]
  Duration of response, survival function estimate: Failure: 0.2857
  Duration of response, survival function estimate: Survival: 0.7143
[2]; [11]
  Duration of response, survival function estimate: Failure: 0.4286
  Duration of response, survival function estimate: Survival: 0.5714
[2]; Val/Val (of 14)
  Day 29 responders who maintain response status during the follow-up phase, %: 64.3%
  Day 29 responders who maintain response status during the follow-up phase, number: 9
[2]; Val/Val and Met carriers together
  Ketamine responders on Day 29, number: 22
[2]; Val/Val, DAY 03 or DAY 04
  Non-remitters %: 95.2%
  Non-remitters No.: 20
  Remitters % (MADRS total score 10): 4.8%
  Remitters No. (MADRS total score 10): 1
[2]; [12]
  MADRS total score change from baseline, Mean: −12.67
  MADRS total score, Mean: 22.29
  Non-responders %: 71.4%
  Non-responders N: 15
  Responders % (MADRS total score reduction ≥50%): 28.6%
  Responders N (MADRS total score reduction ≥50%): 6
[2]; Val/Val, DAY 08(DB)
  Non-remitters %: 80.0%
  Non-remitters No.: 16
  Remitters % (MADRS total score 10): 20.0%
  Remitters No. (MADRS total score 10): 4
[2]; [13]
  MADRS total score change from baseline, Mean: −16.65
  MADRS total score, Mean: 18.50
  Non-responders %: 60.0%
  Non-responders N: 12
  Responders % (MADRS total score reduction ≥50%): 40.0%
  Responders N (MADRS total score reduction ≥50%): 8
[2]; Val/Val, DAY 15(DB)
  Non-remitters %: 77.8%
  Non-remitters No.: 14
  Remitters % (MADRS total score 10): 22.2%
  Remitters No. (MADRS total score 10): 4
[2]; [14]
  MADRS total score change from baseline, Mean: −18.50
  MADRS total score, Mean: 16.11
  Non-responders %: 33.3%
  Non-responders N: 6
  Responders % (MADRS total score reduction ≥50%): 66.7%
  Responders N (MADRS total score reduction ≥50%): 12
[2]; Val/Val, DAY 29(DB)
  Non-remitters %: 35.3%
  Non-remitters No.: 6
  Remitters % (MADRS total score 10): 64.7%
  Remitters No. (MADRS total score 10): 11
[2]; [15]
  MADRS total score change from baseline, Mean: −26.59
  MADRS total score, Mean: 9.59
  Non-responders %: 17.6%
  Non-responders N: 3
  Responders % (MADRS total score reduction ≥50%): 82.4%
  Responders N (MADRS total score reduction ≥50%): 14
[2]; Val/Val, Day 0 after Day 29
  Duration of response, survival function estimate: Failure: 0
  Duration of response, survival function estimate: Survival: 1.0000
[2]; Val/Val, Day 4 after Day 29
  Duration of response, survival function estimate: Failure: 0.1429
  Duration of response, survival function estimate: Survival: 0.8571
[2]; Val/Val, Day 16 after Day 29
  Duration of response, survival function estimate: Failure: 0.2208
  Duration of response, survival function estimate: Survival: 0.7792
[2]; Val/Val, Day 18 after Day 29
  Duration of response, survival function estimate: Failure: 0.3321
  Duration of response, survival function estimate: Survival: 0.6679
[2]; Val/Val, Day 38 after Day 29
  Duration of response, survival function estimate: Failure: 1.0000
  Duration of response, survival function estimate: Survival: 0
[2]; Val/Val, by Day 44, of 14
  Subjects who remain well, number: 12
[2]; ketamine pooled 2x/wk and 3x/wk, over time
  Reduction in MADRS total score, Val/Val vs Met carriers: Larger reductions in MADRS total score over most time points were observed in Val/Val carriers as compared to those Met carriers
[2]; Day 3 or Day 4 and Day 15
  Response rates, Val/Val vs Met carriers: response rates were higher on Day 3 or Day 4 and Day 15 in Val/Val subjects than in Met carriers
[2]; Days 8 and 29
  Response rates, Val/Val vs Met carriers: response rates were similar on Days 8 and 29
[3]
  Antidepressant-like response, Met/Met knocked in mice compared to Val/Val mice: blunted antidepressant-like response
  Synaptogenesis, Met/Met knocked in mice compared to Val/Val mice: reduced synaptogenesis

## CN[C@]1(c2ccccc2Cl)CCCCC1=O.Cl [Esketamine, (S)-2-(2-chlorophenyl)-2-(methylamino)cyclohexanone hydrochloride]
[4]
  Potency or affinity for the NMDA receptor: higher potency or affinity

— patent US10869844B2, “Methods for the treatment of depression” (Janssen Pharmaceutica NV, priority 2014, dated 2020)
